From patent publication US12521356B2, “Compositions and methods for treating pain, inflammation, infection, malaria, and sepsis” (Duke University, priority 2018, dated 2026)

Columns and labels:
GPR37 [1] = target: T1, GPR37 (Mus musculus, UniProt Q9QY42); experiment: Ca2+ imaging (Fluo-4AM) in peritoneal macrophages (pMΦ) from WT and Gpr37−/− mice; assay type: cell-based; settings: for iCa2+ levels: 100 nM
T1 sequence (Q9QY42 27-600): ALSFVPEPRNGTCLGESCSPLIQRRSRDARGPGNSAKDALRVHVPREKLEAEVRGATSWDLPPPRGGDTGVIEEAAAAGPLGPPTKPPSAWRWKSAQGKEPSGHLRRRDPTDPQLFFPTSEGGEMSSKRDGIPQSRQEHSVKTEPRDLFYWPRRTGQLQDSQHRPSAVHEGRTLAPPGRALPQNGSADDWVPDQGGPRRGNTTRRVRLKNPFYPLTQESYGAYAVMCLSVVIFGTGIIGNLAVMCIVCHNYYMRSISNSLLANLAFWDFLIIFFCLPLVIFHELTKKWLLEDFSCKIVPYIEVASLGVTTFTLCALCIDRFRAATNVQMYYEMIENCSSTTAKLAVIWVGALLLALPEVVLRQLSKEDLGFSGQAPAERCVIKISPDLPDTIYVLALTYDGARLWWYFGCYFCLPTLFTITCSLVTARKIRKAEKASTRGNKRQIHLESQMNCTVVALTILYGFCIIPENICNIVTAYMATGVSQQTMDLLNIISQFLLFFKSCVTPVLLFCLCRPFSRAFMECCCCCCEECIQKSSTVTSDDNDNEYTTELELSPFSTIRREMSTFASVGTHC
Method: Peritoneal macrophage culture. Peritoneal macrophages were collected by peritoneal lavage with 10 ml warm PBS containing of 1 mM EDTA. Cells were incubated in DMEM supplemented with 10% FBS at 37° C. for 2 h in petri dish and washed with PBS to eliminate non-adherent cells. The adherent cells were used as peritoneal macrophages. Peritoneal macrophages were used after 3 days of culture.
Calcium imaging. HEK 293 cells, with or without transfection of Gpr37, GPR32, ChemR23 or ALX1 cDNA, were loaded with 5 μM Fura-2AM (Invitrogen) for 1 hour and then were resuspended in normal external buffer (140 NaCl, 5 KCl, 2 CaCl2, 2 MgCl2, 10 HEPES, in mM, titrated to pH 7.4 with NaOH) or external Ca^2+-free buffer (140 NaCl, 2 MgCl2, 5 EGTA, 10 HEPES, in mM, titrated to pH 7.4 with NaOH). Peritoneal macrophages, collected from WT and Gpr37 KO mice, were loaded with 5 μM […] (Invitrogen) for 1 hour and then were resuspended in normal external buffer. Images of the HEK 293 cells and macrophages with the excitation wavelength of 340 nm and 380 nm were captured with a cooled Digital CMOS camera (ORCA-Flash 4.0, Hamamatsu Photonics K.K, Japan). The ratio of fluorescence intensity of the two wavelengths in each experiment was analyzed using MetaFluor (Molecular Devices). The Shutter speed and wavelength was controlled by Lambda DG-4 system (Sutter instrument Co., Novato, CA). Values from each of the experiments were normalized to the baseline ratio of 340/380 nm.
Next, we conducted GPR37-mediated Ca^2+ imaging in native pMΦ from WT and Gpr37^−/− mice using Fluo-4AM as a Ca^2+ indicator, since this dye works better than Fura-2AM for pMΦ. […] As compared to iCa^2+ increase in GPR37-expressing HEK293 cells, NPD1 trigger a slow-onset but more persistent Ca^2+ response in pMΦ (FIG. 2B and FIG. 2G). A relatively rapid calcium response in HEK293 cells may result from over-expression of GPR37. A sustained iCa^2+ increase in pMΦ may result from the expression of transient receptor potential (TRP) ion channels in these immune cells. It is noteworthy that macrophages express TRPV2 or TRPM2, which are involved in phagocytosis during bacterial infection. […] NPD1-triggered iCa^2+ increase in pMΦ is also Gi-dependent, since PTX blocked this increase (FIG. 2H). For comparison, ATP-evoked iCa^2+ increase was not altered in GPR37-deficient pMΦ (FIG. 2H).

GPR37 [2] = target: T2, GPR37 (Homo sapiens, UniProt O15354); experiment: Dot blot binding assay with lysates of HEK293 cells with GPR37 cDNA or mock transfection; settings: for binding to GPR37-containing lysates: blots coated with different concentrations, lysates of HEK293 cells with GPR37 cDNA
T2 construct: host or cells: HEK293 flip-in cells
T2 sequence (O15354 27-613): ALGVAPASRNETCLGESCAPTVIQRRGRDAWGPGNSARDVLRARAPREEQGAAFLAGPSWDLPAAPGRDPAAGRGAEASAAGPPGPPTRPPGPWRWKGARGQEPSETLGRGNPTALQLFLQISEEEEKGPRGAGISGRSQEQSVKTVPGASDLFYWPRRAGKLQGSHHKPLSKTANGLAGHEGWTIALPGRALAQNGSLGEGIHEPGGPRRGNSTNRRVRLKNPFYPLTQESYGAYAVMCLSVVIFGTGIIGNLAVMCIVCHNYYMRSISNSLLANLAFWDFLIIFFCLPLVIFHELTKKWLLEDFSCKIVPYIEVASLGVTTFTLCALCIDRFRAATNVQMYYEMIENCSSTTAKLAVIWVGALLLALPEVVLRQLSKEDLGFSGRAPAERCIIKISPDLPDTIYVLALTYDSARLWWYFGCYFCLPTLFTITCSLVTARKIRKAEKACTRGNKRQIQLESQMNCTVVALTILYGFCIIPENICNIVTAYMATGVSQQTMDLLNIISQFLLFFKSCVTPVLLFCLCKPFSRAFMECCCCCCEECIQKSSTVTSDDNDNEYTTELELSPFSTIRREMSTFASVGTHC
Method: Lipids overlay assay. Lipids membrane coating and protein overlay assay was conducted as previously described (Ji R R, et al. Science 2016, 354, 572-577). Ethanol and chloroform soluble fatty acids were directly loaded on hydrophobic PVDF membrane (Bio-Rad). The fatty acids (NPD1, RvD1, RvE1, and DHA) coated membranes were dried and blocked with 1% BSA. The cell lysate and purified GPR37-V5 protein were incubated with the coating membrane for 2 h, and the binding was detected by anti-V5 tagged antibody (mouse, 1:1000, Thermo scientific, Catalog: 46-0705).
HEK cell culture and transfection. HEK293 flip-in cell line was purchased from Duke Cell Culture Facility. Cells were cultured in high glucose (4.5 g/L) Dulbecco's Modified Eagle's Medium containing 10% (v/v) fetal bovine serum (Gibco). Transfection (2 μg cDNA) was performed with Lonza electroporation (Lonza) at 70% confluency and the transfected cells were cultured in the same growth medium for 48 h before use. The hGPR37-V5 pLenti304 plasmids were obtained from DNASU (Tempe, AZ), and hGPR32, hChemR23 and hALX pcDNA3 plasmids were provided by Dr. Serhan from Harvard Medical School, Boston.
To determine whether NPD1 and TX14 bind to GPR37, we conducted dot blot assay by coating the blots with different concentrations of NPD1 and TX14 and included RvE1 as a control. The blots were then incubated with cell lysates from HEK293 cells with GPR37 cDNA or Mock transfection.

Compound	iCa2+ increase (GPR37 [1]; 30 nM, WT pMΦ)	EC50 (GPR37 [1]; pMΦ, dose response, read-out: EC50 of iCa2+ increase) [nM]	binding to GPR37-containing lysates (GPR37 [2])	binding affinity to GPR37, comparison (GPR37 [2]; dose-response curve analysis)	binding of lysates from mock transfection (GPR37-negative) (GPR37 [2]; mock-transfected HEK293 lysates)	iCa2+ levels (GPR37 [1]; pMΦ)
CC/C=C\C[C@H](O)\C=C/C=C/C=C/[C@H](O)C/C=C\C/C=C\CCC(=O)O [NPD1, neuroprotectin D1]	robust and sustained iCa^2+ increase	19.5	dose-dependent binding	higher binding affinity to GPR37 than TX14	did not show binding activities	
CC/C=C\C[C@H](O)/C=C/C=C\C=C\C=C\[C@@H](O)[C@@H](O)C/C=C\CCC(=O)O [RvD1]						did not alter iCa^2+ levels
CC[C@@H](O)/C=C/C=C\C[C@@H](O)/C=C/C=C/C=C\[C@@H](O)CCCC(=O)O [RvE1]			not			did not alter iCa^2+ levels
